Legend:
Type in all cases: cell-based
PC-3 = assay: MTT cytotoxicity assay, PC-3 prostate cancer cells; settings: Homo sapiens, PC-3, MTT assay; means ± SDs of three independent experiments; read-out: IC50 ± SD, Prostate Cancer Cells, PC-3
Description: (§1) All the cells were cultured as adherent monolayers in culture flasks, and were used to determine the anti-cancer efficacy of RP-010. DMEM supplemented with 4.5 g of glucose, 10% fetal bovine serum (FBS) and 1% penicillin/streptomycin, was used to augment cell growth. Finally, the cells were incubated and grown in a humidified incubator containing 5% CO2 at 37 °C [50]. […] Cells were obtained from frozen stocks and cell passaging (up to P4) was performed at 80% cell confluency, using PBS and trypsin + 2.2-mM EDTA.
(§2) MTT assays were used to determine the cytotoxicity of the RP compounds, to PC cell lines, as previously described.

DU145 = assay: MTT cytotoxicity assay, DU145 prostate cancer cells; settings: Homo sapiens, DU-145, MTT assay; means ± SDs of three independent experiments; read-out: IC50 ± SD, Prostate Cancer Cells, DU145
Description: as §1, §2

CRL-1459 = assay: MTT cytotoxicity assay, CRL-1459 normal colon epithelial cells; settings: Homo sapiens, normal colon epithelial cell line, means ± SDs of three independent experiments, read-out: IC50 ± SD, Non-Prostate Cells, CRL-1459
Description: as §1, §2

CHO = assay: MTT cytotoxicity assay, CHO cells; settings: Cricetulus griseus, Chinese hamster ovarian cell line, means ± SDs of three independent experiments, read-out: IC50 ± SD, Non-Prostate Cells, CHO
Description: as §1, §2

With `O=c1[nH]c(-c2ccccc2)nc2sc3c(c12)CCCC3` [RP1] the IC50 (PC-3) was > 100 µM, the IC50 (DU145) was > 100 µM and the IC50 (CRL-1459) was > 100 µM. The IC50 (CHO) was > 100 µM.

`O=c1[nH]c(-c2ccc(F)cc2)nc2sc3c(c12)CCCC3` [RP2] was tested, and the IC50 (PC-3) was > 100 µM, the IC50 (DU145) was > 100 µM and the IC50 (CRL-1459) was > 100 µM. For the same molecule, the IC50 (CHO) was > 100 µM.

With `O=c1[nH]c(-c2ccc(Cl)cc2)nc2sc3c(c12)CCCC3` [RP3] the IC50 (PC-3) was > 100 µM, the IC50 (DU145) was > 100 µM and the IC50 (CRL-1459) was > 100 µM. The IC50 (CHO) was > 100 µM.

`O=c1[nH]c(-c2ccc(Cl)cc2Cl)nc2sc3c(c12)CCCC3` [RP4] was tested, and the IC50 (PC-3) was 73.4 ± 3.1 µM, the IC50 (DU145) was > 100 µM and the IC50 (CRL-1459) was > 100 µM. For the same molecule, the IC50 (CHO) was > 100 µM.

In the case of `O=c1[nH]c(-c2cccc([N+](=O)[O-])c2)nc2sc3c(c12)CCCC3` [RP5], the IC50 (PC-3) is reported as > 100 µM, the IC50 (DU145) is reported as > 100 µM and the IC50 (CRL-1459) is reported as > 100 µM. For the same molecule, the IC50 (CHO) was > 100 µM.

For `O=c1[nH]c(-c2ccc([N+](=O)[O-])cc2)nc2sc3c(c12)CCCC3` [RP6], the IC50 (PC-3) was > 100 µM, the IC50 (DU145) was > 100 µM and the IC50 (CRL-1459) was > 100 µM. For the same molecule, the IC50 (CHO) was > 100 µM.

With `Cc1ccc(-c2nc3sc4c(c3c(=O)[nH]2)CCCC4)cc1` [RP7] the IC50 (PC-3) was > 100 µM, the IC50 (DU145) was > 100 µM and the IC50 (CRL-1459) was > 100 µM. For the same molecule, the IC50 (CHO) was > 100 µM.

In the case of `N#Cc1ccc(-c2nc3sc4c(c3c(=O)[nH]2)CCCC4)cc1` [RP8], the IC50 (PC-3) is reported as 6.4 ± 0.5 µM, the IC50 (DU145) is reported as > 100 µM and the IC50 (CRL-1459) is reported as > 100 µM. The IC50 (CHO) was > 100 µM.

With `COc1cccc(-c2nc3sc4c(c3c(=O)[nH]2)CCCC4)c1` [RP9] the IC50 (PC-3) was 2.8 ± 1.1 µM, the IC50 (DU145) was > 100 µM and the IC50 (CRL-1459) was > 100 µM. The IC50 (CHO) was > 100 µM.

With `COc1ccc(-c2nc3sc4c(c3c(=O)[nH]2)CCCC4)cc1OC` [RP11] the IC50 (PC-3) was 6.6 ± 0.7 µM, the IC50 (DU145) was 2.7 ± 0.5 µM and the IC50 (CRL-1459) was > 100 µM. The IC50 (CHO) was > 100 µM.

For `COc1cc(OC)cc(-c2nc3sc4c(c3c(=O)[nH]2)CCCC4)c1` [RP12], the IC50 (PC-3) was 6.9 ± 1 µM, the IC50 (DU145) was > 100 µM and the IC50 (CRL-1459) was > 100 µM. For the same molecule, the IC50 (CHO) was > 100 µM.

In the case of `COc1cccc(-c2nc3sc4c(c3c(=O)[nH]2)CCCC4)c1O` [RP13], the IC50 (PC-3) is reported as > 100 µM, the IC50 (DU145) is reported as > 100 µM and the IC50 (CRL-1459) is reported as > 100 µM. The IC50 (CHO) was > 100 µM.

Reference: PMC6563099, “Novel Thienopyrimidine Derivative, RP-010, Induces β-Catenin Fragmentation and Is Efficacious against Prostate Cancer Cells” (Cancers, 2019)
